Measurements as given in publication PMC6240685, “Strong Inhibitory Effect, Low Cytotoxicity and High Plasma Stability of Steroidal Inhibitors of N-Methyl-D-Aspartate Receptors With C-3 Amide Structural Motif” (Frontiers in Pharmacology, 2018).

How the values were obtained:
HepG2 cells [1] = experiment: Hepatotoxicity, XTT viability after 72 h; format: cell-based; details: Homo sapiens; 72 h, HepG2, 5.5 mM glucose; read-out: Hepatotoxicity IC50, 5.5 mM glucose
Description: Then, the cell viability (XTT assay) and reactive oxygen species (ROS) induction were evaluated.
(§1) (A) Hepatotoxicity provoked by compound 4 was assessed after 72 h incubation of HepG2 cells in low glucose medium (5 mM) in the presence of compound 4 (0.25–100 μM). (B) Mitochondrial toxicity was determined after 24 h incubation of HepG2 cells in either high glucose medium (25 mM) or galactose medium (10 mM) in the presence of compound 4 (2.5–150 μM). Cell viabilities were recorded in triplicates in three independent experiments and expressed as percentage of vehicle control ± SD and IC50 values were determined by GraphPad Prism software using following equation: Y = Bottom + (Top–Bottom)/(1 + 10ˆ((LogIC50-X)^∗HillSlope)), where IC50 is the concentration of compound 4 that inhibits cell viability half way between Bottom and Top plateaus, X is compound 4 concentration and HillSlope describes the steepness of the family of curves. […] (C) Concentration-dependent effect on ROS level. HepG2 cells were treated with compound 4 (0.25–100 μM) for 72 h, and then the intracellular level of total ROS in relative fluorescence units (RFU) was detected. The data are presented as the mean ± SD for at least three independent experiments and each experiment was carried out in triplicate. Final concentration of DMSO in samples was 1%. […] Single asterisks (^∗) indicate a significant difference (P < 0.05) compared to 1% DMSO control (one-way ANOVA with Dunnett’s post-test).
(§2) HepG2 cells (ATCC®, United Kingdom) were grown in complete Minimal Essential Medium (EMEM) (5.5 mM glucose) medium, supplemented with 10% (v/v) fetal calf serum, 200 μg/mL of streptomycin, 200 U/mL of penicillin G and 4 mM glutamine. They were cultured under a humidified atmosphere containing 5% CO2 at 37°C.
(§3) The cytotoxicity of the tested compounds was assessed with use of XTT cell proliferation kit II (Roche Diagnostics GmbH, Mannheim, Germany) according to the manufacturer’s instructions. Briefly HepG2 cells were seeded in a 96-well plate at a density of 22,000 cells per well. After 24 h, the tested neurosteroids in a concentration range from 0.5 to 200 μM were added to the culture media and incubated for 72 h before the XTT dye was added. Mitochondrial toxicity was assessed in HepG2 cells using glucose and galactose conditioned media and XTT assay as a read out for cell viability. In brief, cells were seeded onto 96 well, clear bottom tissue culture plates at a density of 22,000 cells/well and left overnight to attach. Six hours prior to the neurosteroids treatment the media was replaced with 100 μL DMEM media containing either glucose (25 mM glucose; 1 mM pyruvate; 2 mM glutamine, 10% FBS) or galactose (10 mM galactose, 1 mM pyruvate, 6 mM glutamine, 10% FBS). After that, the tested neurosteroids in a concentration range from 0.5 to 200 μM were added in the fresh appropriate assay medium (glucose or galactose) and incubated for 24 h before the XTT dye was added. The XTT absorbance was recorded at 495 nm after 1 h incubation with the dye. Compounds were dissolved in DMSO to produce the stock solutions at the concentration of 10 mM, with exception of PAG, 1, 6 (5 mM), and 11 (2.5 mM). Results were expressed as percentages of change in viability compared to appropriate DMSO control. IC50 values were determined by GraphPad Prism version 5.00 for Windows (GraphPad Software, La Jolla, CA, United States). All experiments were done in triplicates in three independent experiments to check the reproducibility.

HepG2 cells [2] = experiment: Mitotoxicity, XTT viability in glucose vs galactose medium; details: Homo sapiens, HepG2, 24 h
Description: as §1, §2, §3

[3] = Plasma stability, rat plasma; format: in vitro ADME; details: rat, plasma

Structure (SMILES): C[C@@]12CCC[C@H]1[C@@H]1CC[C@@H]3C[C@H](NC(=O)[C@@H](N)CC(=O)O)CC[C@]3(C)[C@H]1CC2 [Compound 6, (S)-3-amino-4-(((3R,5R,8S,9S,10S,13S,14S)-10,13-dimethylhexadecahydro-1H-cyclopenta[a]phenanthren-3-yl)amino)-4-oxobutanoic acid]
- IC50 (HepG2 cells [1]): > 200 µM
- IC50 (HepG2 cells [2]; read-out: Mitotoxicity IC50, 10 mM galactose): > 200 µM
- IC50 (HepG2 cells [2]; read-out: Mitotoxicity IC50, 25 mM glucose): > 200 µM
- remaining at 8 h, 42.1 μg/mL [3]: 97%
